Like-named read-outs stand apart in the source and are kept apart here.
Biological target: T1, ACAT 2 (Mus musculus, UniProt O88908)
T1 construct: The source of ACAT 2 enzyme used was a membrane fraction derived from mouse liver microsome; from tissue; host or cells: mouse liver (microsome fraction)
T1 sequence (O88908 1-525): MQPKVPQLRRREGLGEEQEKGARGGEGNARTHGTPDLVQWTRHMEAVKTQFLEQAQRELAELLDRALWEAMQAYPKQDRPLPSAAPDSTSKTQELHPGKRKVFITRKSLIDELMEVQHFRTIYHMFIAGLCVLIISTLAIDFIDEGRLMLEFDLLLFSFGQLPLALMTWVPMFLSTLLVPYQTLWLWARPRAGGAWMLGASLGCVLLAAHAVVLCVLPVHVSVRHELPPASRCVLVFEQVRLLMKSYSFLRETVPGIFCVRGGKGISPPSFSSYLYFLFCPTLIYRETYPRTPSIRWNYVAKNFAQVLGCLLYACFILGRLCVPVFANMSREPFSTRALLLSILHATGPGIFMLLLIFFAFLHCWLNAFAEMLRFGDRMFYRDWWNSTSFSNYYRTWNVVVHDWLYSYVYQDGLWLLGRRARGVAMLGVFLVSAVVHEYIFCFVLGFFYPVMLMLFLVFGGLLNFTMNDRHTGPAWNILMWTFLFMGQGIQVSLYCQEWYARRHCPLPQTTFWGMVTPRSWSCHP
Experiment: ACAT-inhibiting activity, mouse liver microsome membrane fraction, [14C]oleoyl-CoA
Type: biochemical
Settings: for Specific activity: (inhibitory activity of test compound)/(inhibitory activity of pyripyropene A): relative to pyripyropene A
Experimental: The source of ACAT 2 enzyme used was a membrane fraction derived from mouse liver microsome. Mouse liver was homogenized in buffer solution A (50 mM Tris-HCl (pH 7.8), 1 mM ethylenediamine tetraacetate, and 1 mM phenylmethanesulfonyl fluoride) using a homogenizer of the Potter type (Tokyo-RIKO). The homogenate was centrifuged at 12000×g, and the supernatant was ultracentrifuged at 100000×g. The sediment was taken as a microsome fraction, and this fraction was adjusted to have a protein concentration of 5 mg/ml using buffer solution A.
The chloroform layer was evaporated to dryness and was used to spot a thin layer chromatography plate (silica gel plate, Merck, 0.5 mm thickness). Elution for separation was carried out using a solvent of hexane/diethyl ether/acetic acid (70:30:1, v/v).

[1] = mouse liver microsome, 5 minutes at 37° C.

7-O-o,m,p-trifluorobenzoyl-7-deacetylpyripyropene A [PRD 110]
IC50 (read-out: Inhibitory activity: Concentration required for 50% inhibition of ACAT 2, mouse liver microsome, 5 minutes at 37° C.): < 0.01 µM | Specific activity: (inhibitory activity of test compound)/(inhibitory activity of pyripyropene A): +++ (50 > specific activity > 10)

COc1ccccc1C(=O)O[C@H]1CC2C(C)(COC(C)=O)[C@@H](OC(C)=O)CC[C@]2(C)C2[C@@H](O)c3c(cc(-c4cccnc4)oc3=O)O[C@@]21C (stereo partly shown) [PRD 001, 7-o-methoxybenzoyl-7-deacetylpyripyropene A]
IC50 [1]: 0.01 to 0.1 µM | Specific activity: (inhibitory activity of test compound)/(inhibitory activity of pyripyropene A): + (5 > specific activity > 1)

COc1cccc(C(=O)O[C@H]2CC3C(C)(COC(C)=O)[C@@H](OC(C)=O)CC[C@]3(C)C3[C@@H](O)c4c(cc(-c5cccnc5)oc4=O)O[C@@]32C)c1 (stereo partly shown) [PRD 002, 7-m-methoxybenzoyl-7-deacetylpyripyropene A]
IC50 [1]: 0.01 to 0.1 µM | Specific activity: (inhibitory activity of test compound)/(inhibitory activity of pyripyropene A): +++ (50 > specific activity > 10)

COc1ccc(C(=O)O[C@H]2CC3C(C)(COC(C)=O)[C@@H](OC(C)=O)CC[C@]3(C)C3[C@@H](O)c4c(cc(-c5cccnc5)oc4=O)O[C@@]32C)cc1 (stereo partly shown) [PRD 003, 7-p-methoxybenzoyl-7-deacetylpyripyropene A]
IC50 [1]: < 0.01 µM | Specific activity: (inhibitory activity of test compound)/(inhibitory activity of pyripyropene A): +++ (50 > specific activity > 10)

CC(=O)OCC1(C)C(OC(C)=O)CCC2(C)C1CC(OC(=O)c1ccccc1I)C1(C)Oc3cc(-c4cccnc4)oc(=O)c3C(O)C21 (stereo not shown) [PRD 004, 7-o-iodobenzoyl-7-deacetylpyripyropene A]
Specific activity: (inhibitory activity of test compound)/(inhibitory activity of pyripyropene A): +++ (50 > specific activity > 10)

CC(=O)OCC1(C)C2C[C@H](OC(=O)c3cccc(I)c3)[C@@]3(C)Oc4cc(-c5cccnc5)oc(=O)c4[C@H](O)C3[C@@]2(C)CC[C@@H]1OC(C)=O (stereo partly shown) [PRD 005, 7-m-iodobenzoyl-7-deacetylpyripyropene A]
IC50 [1]: 0.01 to 0.1 µM | Specific activity: (inhibitory activity of test compound)/(inhibitory activity of pyripyropene A): +++ (50 > specific activity > 10)

CC(=O)OCC1(C)C2C[C@H](OC(=O)c3ccc(I)cc3)[C@@]3(C)Oc4cc(-c5cccnc5)oc(=O)c4[C@H](O)C3[C@@]2(C)CC[C@@H]1OC(C)=O (stereo partly shown) [PRD 006, 7-p-iodobenzoyl-7-deacetylpyripyropene A]
IC50 [1]: 0.01 to 0.1 µM | Specific activity: (inhibitory activity of test compound)/(inhibitory activity of pyripyropene A): ++ (10 > specific activity > 5)

CC(=O)OCC1(C)C2C[C@H](OC(=O)c3ccccc3C)[C@@]3(C)Oc4cc(-c5cccnc5)oc(=O)c4[C@H](O)C3[C@@]2(C)CC[C@@H]1OC(C)=O (stereo partly shown) [PRD 007, 7-o-methylbenzoyl-7-deacetylpyripyropene A]
Specific activity: (inhibitory activity of test compound)/(inhibitory activity of pyripyropene A): ++++ (100 > specific activity > 50)

CC(=O)OCC1(C)C2C[C@H](OC(=O)c3cccc(C)c3)[C@@]3(C)Oc4cc(-c5cccnc5)oc(=O)c4[C@H](O)C3[C@@]2(C)CC[C@@H]1OC(C)=O (stereo partly shown) [PRD 008, 7-m-methylbenzoyl-7-deacetylpyripyropene A]
Specific activity: (inhibitory activity of test compound)/(inhibitory activity of pyripyropene A): +++ (50 > specific activity > 10)

CC(=O)OCC1(C)C(OC(C)=O)CCC2(C)C1CC(OC(=O)c1ccc(C)cc1)C1(C)Oc3cc(-c4cccnc4)oc(=O)c3C(O)C21 (stereo not shown) [PRD 009]
Specific activity: (inhibitory activity of test compound)/(inhibitory activity of pyripyropene A): ++++ (100 > specific activity > 50)

CC(=O)OCC1(C)C2C[C@H](OC(=O)c3ccccc3Cl)[C@@]3(C)Oc4cc(-c5cccnc5)oc(=O)c4[C@H](O)C3[C@@]2(C)CC[C@@H]1OC(C)=O (stereo partly shown) [PRD 010, 7-o-chlorobenzoyl-7-deacetylpyripyropene A]
IC50 [1]: 0.01 to 0.1 µM | Specific activity: (inhibitory activity of test compound)/(inhibitory activity of pyripyropene A): +++ (50 > specific activity > 10)

CC(=O)OCC1(C)C2C[C@H](OC(=O)c3cccc(Cl)c3)[C@@]3(C)Oc4cc(-c5cccnc5)oc(=O)c4[C@H](O)C3[C@@]2(C)CC[C@@H]1OC(C)=O (stereo partly shown) [PRD 011, 7-m-chlorobenzoyl-7-deacetylpyripyropene A]
IC50 [1]: 0.01 to 0.1 µM | Specific activity: (inhibitory activity of test compound)/(inhibitory activity of pyripyropene A): +++ (50 > specific activity > 10)

CC(=O)OCC1(C)C2C[C@H](OC(=O)c3ccc(Cl)cc3)[C@@]3(C)Oc4cc(-c5cccnc5)oc(=O)c4[C@H](O)C3[C@@]2(C)CC[C@@H]1OC(C)=O (stereo partly shown) [PRD 012, 7-p-chlorobenzoyl-7-deacetylpyripyropene A]
IC50 [1]: < 0.01 µM | Specific activity: (inhibitory activity of test compound)/(inhibitory activity of pyripyropene A): +++ (50 > specific activity > 10)

C=Cc1cccc(C(=O)O[C@H]2CC3C(C)(COC(C)=O)[C@@H](OC(C)=O)CC[C@]3(C)C3[C@@H](O)c4c(cc(-c5cccnc5)oc4=O)O[C@@]32C)c1 (stereo partly shown) [PRD 013, 7-m-vinylbenzoyl-7-deacetylpyripyropene A]
IC50 [1]: < 0.01 µM | Specific activity: (inhibitory activity of test compound)/(inhibitory activity of pyripyropene A): +++ (50 > specific activity > 10)

C=Cc1ccc(C(=O)O[C@H]2CC3C(C)(COC(C)=O)[C@@H](OC(C)=O)CC[C@]3(C)C3[C@@H](O)c4c(cc(-c5cccnc5)oc4=O)O[C@@]32C)cc1 (stereo partly shown) [PRD 014, 7-p-vinylbenzoyl-7-deacetylpyripyropene A]
Specific activity: (inhibitory activity of test compound)/(inhibitory activity of pyripyropene A): ++ (10 > specific activity > 5)

CC(=O)OCC1(C)C2C[C@H](OC(=O)c3ccccc3C#N)[C@@]3(C)Oc4cc(-c5cccnc5)oc(=O)c4[C@H](O)C3[C@@]2(C)CC[C@@H]1OC(C)=O (stereo partly shown) [PRD 015, 7-o-cyanobenzoyl-7-deacetylpyripyropene A]
IC50 [1]: 0.1 to 1 µM | Specific activity: (inhibitory activity of test compound)/(inhibitory activity of pyripyropene A): + (5 > specific activity > 1)

CC(=O)OCC1(C)C2C[C@H](OC(=O)c3cccc(C#N)c3)[C@@]3(C)Oc4cc(-c5cccnc5)oc(=O)c4[C@H](O)C3[C@@]2(C)CC[C@@H]1OC(C)=O (stereo partly shown) [PRD 016, 7-m-cyanobenzoyl-7-deacetylpyripyropene A]
IC50 [1]: 0.01 to 0.1 µM | Specific activity: (inhibitory activity of test compound)/(inhibitory activity of pyripyropene A): +++ (50 > specific activity > 10)

CSc1ccc(C(=O)O[C@H]2CC3C(C)(COC(C)=O)[C@@H](OC(C)=O)CC[C@]3(C)C3[C@@H](O)c4c(cc(-c5cccnc5)oc4=O)O[C@@]32C)cc1 (stereo partly shown) [PRD 018, 7-p-methylthiobenzoyl-7-deacetylpyripyropene A]
IC50 [1]: 0.01 to 0.1 µM | Specific activity: (inhibitory activity of test compound)/(inhibitory activity of pyripyropene A): + (5 > specific activity > 1)

CC(=O)OCC1(C)C2C[C@H](OC(=O)c3ccc(Br)cc3)[C@@]3(C)Oc4cc(-c5cccnc5)oc(=O)c4[C@H](O)C3[C@@]2(C)CC[C@@H]1OC(C)=O (stereo partly shown) [PRD 019, 7-p-bromobenzoyl-7-deacetylpyripyropene A]
Specific activity: (inhibitory activity of test compound)/(inhibitory activity of pyripyropene A): +++ (50 > specific activity > 10)

CC(=O)OCC1(C)C2C[C@H](OC(=O)c3ccc(F)cc3)[C@@]3(C)Oc4cc(-c5cccnc5)oc(=O)c4[C@H](O)C3[C@@]2(C)CC[C@@H]1OC(C)=O (stereo partly shown) [PRD 020, 7-p-fluorobenzoyl-7-deacetylpyripyropene A]
IC50 [1]: < 0.01 µM | Specific activity: (inhibitory activity of test compound)/(inhibitory activity of pyripyropene A): +++ (50 > specific activity > 10)

CC(=O)OCC1(C)C2C[C@H](OC(=O)C3CCCCC3)[C@@]3(C)Oc4cc(-c5cccnc5)oc(=O)c4[C@H](O)C3[C@@]2(C)CC[C@@H]1OC(C)=O (stereo partly shown) [PRD 021, 7-cyclohexanecarboxyl-7-deacetylpyripyropene A]
IC50: < 0.01 µM | Specific activity: (inhibitory activity of test compound)/(inhibitory activity of pyripyropene A): ++++ (100 > specific activity > 50)

CC(=O)OCC1(C)C2C[C@H](OC(=O)C34CC5CC(CC(C5)C3)C4)[C@@]3(C)Oc4cc(-c5cccnc5)oc(=O)c4[C@H](O)C3[C@@]2(C)CC[C@@H]1OC(C)=O (stereo partly shown) [PRD 022, 7-1-adamantanecarboxyl-7-deacetylpyripyropene A]
IC50 [1]: < 0.01 µM | Specific activity: (inhibitory activity of test compound)/(inhibitory activity of pyripyropene A): +++ (50 > specific activity > 10)

CSc1cccc(C(=O)O[C@H]2CC3C(C)(COC(C)=O)[C@@H](OC(C)=O)CC[C@]3(C)C3[C@@H](O)c4c(cc(-c5cccnc5)oc4=O)O[C@@]32C)c1 (stereo partly shown) [PRD 023, 7-m-methylthiobenzoyl-7-deacetylpyripyropene A]
IC50 [1]: 0.01 to 0.1 µM | Specific activity: (inhibitory activity of test compound)/(inhibitory activity of pyripyropene A): +++ (50 > specific activity > 10)
